Measurements published in paper PMC4672351, “Drug-Drug Interaction Potentials of Tyrosine Kinase Inhibitors via Inhibition of UDP-Glucuronosyltransferases” (Scientific Reports, 2015).

Legend:
[1] = target: T1, UGT1A6 (Homo sapiens, UniProt P19224); assay: Inhibition of 4-MU glucuronidation by recombinant UGT1A6; assay type: in vitro ADME; settings: recombinant UGT1A6, pH 7.4, probe 4-MU, 100 μM inhibitor, 4-MU substrate, positive control diclofenac, read-out: Remaining activities (%) of UGT1A6
T1 construct: purchased BD Gentest (Woburn, MA); host or cells: baculovirus-infected insect cells
T1 sequence (P19224 27-532): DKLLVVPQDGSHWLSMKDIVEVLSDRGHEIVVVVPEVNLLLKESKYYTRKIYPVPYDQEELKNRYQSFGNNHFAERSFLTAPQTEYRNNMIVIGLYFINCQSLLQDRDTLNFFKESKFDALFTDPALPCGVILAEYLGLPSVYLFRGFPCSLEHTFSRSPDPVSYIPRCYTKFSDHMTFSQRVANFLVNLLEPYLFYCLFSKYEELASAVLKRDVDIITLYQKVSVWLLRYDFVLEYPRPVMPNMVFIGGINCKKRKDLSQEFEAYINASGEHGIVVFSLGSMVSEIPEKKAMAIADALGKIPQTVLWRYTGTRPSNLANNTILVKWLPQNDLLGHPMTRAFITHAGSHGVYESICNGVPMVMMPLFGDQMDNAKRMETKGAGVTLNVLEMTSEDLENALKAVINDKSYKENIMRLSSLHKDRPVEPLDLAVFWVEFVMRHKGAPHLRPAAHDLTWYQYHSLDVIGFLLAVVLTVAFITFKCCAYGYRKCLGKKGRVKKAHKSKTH

[2] = target: T2, UGT1A1 (Homo sapiens, UniProt P22309); assay: Inhibition of 4-MU glucuronidation by recombinant UGT1A1; settings: human, recombinant UGT1A1, pH 7.4, probe 4-MU
T2 sequence (P22309 26-533): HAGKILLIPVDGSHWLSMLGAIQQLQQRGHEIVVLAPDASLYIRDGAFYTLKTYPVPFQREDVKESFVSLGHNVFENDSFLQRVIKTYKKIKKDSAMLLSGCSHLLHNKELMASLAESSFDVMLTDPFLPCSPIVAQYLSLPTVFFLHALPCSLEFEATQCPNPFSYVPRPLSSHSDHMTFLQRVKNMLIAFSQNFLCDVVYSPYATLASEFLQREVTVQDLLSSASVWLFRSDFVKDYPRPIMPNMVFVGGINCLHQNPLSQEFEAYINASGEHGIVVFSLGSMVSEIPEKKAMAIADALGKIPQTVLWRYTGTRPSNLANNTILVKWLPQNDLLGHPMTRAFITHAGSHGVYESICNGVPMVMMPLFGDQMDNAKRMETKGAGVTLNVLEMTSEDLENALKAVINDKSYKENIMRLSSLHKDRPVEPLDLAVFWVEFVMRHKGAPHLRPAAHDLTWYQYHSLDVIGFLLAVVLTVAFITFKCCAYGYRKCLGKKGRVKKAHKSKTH

[3] = target: T3, UGT1A9 (Homo sapiens, UniProt O60656); assay: in vitro; settings: recombinant UGT1A9, pH 7.4, probe 4-MU
T3 sequence (O60656 26-530): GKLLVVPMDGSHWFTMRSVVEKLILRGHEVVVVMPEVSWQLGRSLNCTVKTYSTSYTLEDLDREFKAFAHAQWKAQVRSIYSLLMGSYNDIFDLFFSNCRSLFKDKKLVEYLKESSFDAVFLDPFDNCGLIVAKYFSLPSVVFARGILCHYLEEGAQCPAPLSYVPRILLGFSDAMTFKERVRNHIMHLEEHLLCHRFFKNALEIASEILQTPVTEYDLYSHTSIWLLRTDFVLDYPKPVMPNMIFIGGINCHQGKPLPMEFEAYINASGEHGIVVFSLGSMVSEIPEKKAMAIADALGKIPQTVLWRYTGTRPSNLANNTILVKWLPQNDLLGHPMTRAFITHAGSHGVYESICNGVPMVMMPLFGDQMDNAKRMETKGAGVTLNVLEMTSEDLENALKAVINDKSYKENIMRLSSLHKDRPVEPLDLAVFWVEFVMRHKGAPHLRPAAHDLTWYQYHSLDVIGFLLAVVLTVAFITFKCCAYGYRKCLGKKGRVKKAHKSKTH

[4] = target: T4, UGT1A7 (Homo sapiens, UniProt Q9HAW7); assay: Inhibition of 4-MU glucuronidation by recombinant UGT1A7; settings: human, recombinant UGT1A7, pH 7.4, probe 4-MU
T4 sequence (Q9HAW7 26-530): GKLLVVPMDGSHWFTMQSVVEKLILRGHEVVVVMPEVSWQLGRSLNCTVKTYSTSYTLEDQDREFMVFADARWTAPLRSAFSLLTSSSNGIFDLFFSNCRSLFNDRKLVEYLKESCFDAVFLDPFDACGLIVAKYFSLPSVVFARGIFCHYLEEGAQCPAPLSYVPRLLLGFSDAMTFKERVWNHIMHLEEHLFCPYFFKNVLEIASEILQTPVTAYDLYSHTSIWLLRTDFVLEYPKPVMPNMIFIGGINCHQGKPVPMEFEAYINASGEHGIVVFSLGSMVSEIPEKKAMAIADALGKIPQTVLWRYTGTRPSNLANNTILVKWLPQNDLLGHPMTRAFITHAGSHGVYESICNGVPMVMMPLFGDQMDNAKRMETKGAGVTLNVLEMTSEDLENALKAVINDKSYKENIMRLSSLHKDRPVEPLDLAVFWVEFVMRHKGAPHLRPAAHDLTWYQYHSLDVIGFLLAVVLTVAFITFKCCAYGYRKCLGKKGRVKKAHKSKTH

[5] = target: T5, UGT1A10 (Homo sapiens, UniProt Q9HAW8); assay: Inhibition of 4-MU glucuronidation by recombinant UGT1A10; settings: recombinant UGT1A10, pH 7.4, probe 4-MU
T5 sequence (Q9HAW8 26-530): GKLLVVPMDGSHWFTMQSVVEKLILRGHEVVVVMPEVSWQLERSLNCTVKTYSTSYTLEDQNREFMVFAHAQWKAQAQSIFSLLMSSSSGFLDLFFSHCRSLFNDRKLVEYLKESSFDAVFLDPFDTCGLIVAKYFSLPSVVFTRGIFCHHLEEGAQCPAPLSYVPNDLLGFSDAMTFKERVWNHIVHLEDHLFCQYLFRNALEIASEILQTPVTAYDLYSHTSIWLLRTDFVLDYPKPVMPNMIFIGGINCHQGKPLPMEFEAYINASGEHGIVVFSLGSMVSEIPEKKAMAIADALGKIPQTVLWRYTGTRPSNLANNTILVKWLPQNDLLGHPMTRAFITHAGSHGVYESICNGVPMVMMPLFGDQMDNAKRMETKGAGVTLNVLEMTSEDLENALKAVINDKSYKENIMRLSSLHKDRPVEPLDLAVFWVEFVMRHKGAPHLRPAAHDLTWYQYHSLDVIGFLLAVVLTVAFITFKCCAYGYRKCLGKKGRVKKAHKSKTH

[6] = target: T6, UGT1A8 (Homo sapiens, UniProt Q9HAW9); assay: Inhibition of 4-MU glucuronidation by recombinant UGT1A8; settings: recombinant UGT1A8, pH 7.4, probe 4-MU
T6 sequence (Q9HAW9 26-530): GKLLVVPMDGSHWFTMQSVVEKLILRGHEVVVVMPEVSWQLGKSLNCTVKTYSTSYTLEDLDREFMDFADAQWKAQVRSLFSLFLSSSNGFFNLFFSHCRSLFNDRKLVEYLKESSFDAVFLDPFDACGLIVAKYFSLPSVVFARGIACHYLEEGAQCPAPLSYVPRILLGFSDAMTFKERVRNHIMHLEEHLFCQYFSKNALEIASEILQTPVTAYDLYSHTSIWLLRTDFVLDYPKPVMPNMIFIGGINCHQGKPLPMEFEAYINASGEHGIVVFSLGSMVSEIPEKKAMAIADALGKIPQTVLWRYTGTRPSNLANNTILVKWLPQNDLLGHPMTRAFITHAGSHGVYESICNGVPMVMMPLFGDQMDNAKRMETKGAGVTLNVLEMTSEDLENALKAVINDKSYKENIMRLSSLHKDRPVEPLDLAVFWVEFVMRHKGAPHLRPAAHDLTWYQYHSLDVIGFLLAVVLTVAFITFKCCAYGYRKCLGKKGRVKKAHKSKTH

[7] = target: T7, UGT1A4 (Homo sapiens, UniProt P22310); assay: Inhibition of TFP glucuronidation by recombinant UGT1A4; settings: 100 μM inhibitor; TFP substrate; positive control hecogenin
T7 sequence (P22310 29-534): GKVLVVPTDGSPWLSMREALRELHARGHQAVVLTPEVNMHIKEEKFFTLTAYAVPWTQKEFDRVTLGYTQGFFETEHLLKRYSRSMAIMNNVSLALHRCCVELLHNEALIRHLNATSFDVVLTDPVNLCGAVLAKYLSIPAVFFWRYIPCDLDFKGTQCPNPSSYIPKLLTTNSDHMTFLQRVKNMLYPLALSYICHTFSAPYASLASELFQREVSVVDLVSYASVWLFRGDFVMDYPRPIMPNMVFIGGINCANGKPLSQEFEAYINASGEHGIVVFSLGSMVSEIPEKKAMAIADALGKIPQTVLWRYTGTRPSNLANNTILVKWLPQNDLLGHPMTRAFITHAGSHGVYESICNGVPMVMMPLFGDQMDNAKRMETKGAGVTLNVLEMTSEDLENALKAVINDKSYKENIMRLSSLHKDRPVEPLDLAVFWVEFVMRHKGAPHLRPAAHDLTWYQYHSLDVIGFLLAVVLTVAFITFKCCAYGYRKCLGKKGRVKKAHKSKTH

O=C(O)Cc1ccccc1Nc1c(Cl)cccc1Cl [diclofenac]
activity at 30 min, 100 µM [1]: 28.2 ± 10% | activity at 120 min, 100 µM [2]: 37 ± 2.1% | activity at 30 min, 100 µM [3]: 15.2 ± 1.2% | activity at 30 min, 100 µM [4]: 25.6 ± 11.2%

CCCCC1C(=O)N(c2ccccc2)N(c2ccccc2)C1=O [phenylbutazone]
activity at 120 min, 100 µM [5]: 37.8 ± 8% | activity at 30 min, 100 µM [6]: 40.2 ± 5.3%

hecogenin
Remaining activities (%) of UGT1A4 [7]: 20.3 ± 6.6%
